# Assay results published in US20130184222A1, “[…] ACTIVE COMPOSITIONS AND THEIR METHODS OF USE” (AGIOS PHARMACEUTICALS, INC, priority 2010, published 2013).
# Target: IDH1 R132H (Homo sapiens, UniProt O75874, R132H)
# Test: In vitro assay for IDH1 R132H inhibitors (NADPH/aKG, resazurin detection)
# Format: biochemical
# Conditions: Table 4A; 0.2 μg/ml IDH1 R132H, 50 minutes at room temperature; read-out: IC50 (uM), IDH1 R132H Inhibition
# Protocol: Assays were conducted in a volume of 76 μl assay buffer (150 mM NaCl, 10 mM MgCl2, 20 mM Tris pH 7.5, 0.03% bovine serum albumin) as follows in a standard 384-well plate: To 25 ul of substrate mix (8 uM NADPH, 2 mM aKG), 1 μl of test compound was added in DMSO. The plate was centrifuged briefly, and then 25 μl of enzyme mix was added (0.2 μg/ml IDH1 R132H) followed by a brief centrifugation and shake at 100 RPM. The reaction was incubated for 50 minutes at room temperature, then 25 μl of detection mix (30 μM resazurin, […]) was added and the mixture further incubated for 5 minutes at room temperature. The conversion of resazurin to resorufin was detected by fluorescent spectroscopy at Ex544 Em590 c/o 590.
# The compounds of Formula I set forth in Table 1 and the compounds set forth in Table 2 were tested in this assay and the results set forth below in Table 4A and 4B.
# Sequence of IDH1 R132H (O75874 whole entry R132H): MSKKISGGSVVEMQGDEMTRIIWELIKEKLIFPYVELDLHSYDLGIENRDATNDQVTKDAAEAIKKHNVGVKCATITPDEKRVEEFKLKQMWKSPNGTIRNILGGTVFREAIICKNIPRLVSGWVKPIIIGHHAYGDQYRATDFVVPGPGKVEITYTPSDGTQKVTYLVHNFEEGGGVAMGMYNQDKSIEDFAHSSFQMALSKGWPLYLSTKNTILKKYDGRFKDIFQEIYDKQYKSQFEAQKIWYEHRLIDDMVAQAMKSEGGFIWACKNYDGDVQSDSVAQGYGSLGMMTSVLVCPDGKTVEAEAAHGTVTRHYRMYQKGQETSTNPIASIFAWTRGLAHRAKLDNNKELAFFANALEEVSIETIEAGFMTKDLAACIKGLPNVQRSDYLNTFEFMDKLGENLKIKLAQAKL
row,SMILES,IC50 [µM]
1,O=C(NC1CCCCC1)C(c1ccccc1F)N(C(=O)CNS(=O)(=O)c1ccccc1)c1ccccc1F (centres unmarked) [Compound 10],0.1 to 1
2,Cc1ccccc1C(C(=O)NC1CCCC1)N(C(=O)CNS(=O)(=O)c1ccccc1)c1cccc(F)c1 (centres unmarked) [Compound 28],0.1 to 1
3,O=C(NC1CCCCC1)C(Cc1ccccc1)N(C(=O)Cc1cccs1)c1cccc(F)c1 (centres unmarked) [Compound 82],1 to 10
4,Cc1ccccc1C(C(=O)NC1CCCCC1)N(C(=O)Cc1cccs1)c1ccccc1Br (centres unmarked) [Compound 98],0.1 to 1
5,Cc1ccccc1C(C(=O)NC1CCCC1)N(C(=O)Cc1cccs1)c1ccccc1F (centres unmarked) [Compound 46],0.1 to 1
6,Cc1ccccc1[C@H](C(=O)NC1CCCCC1)N(C(=O)Cc1cccs1)c1cccc(F)c1 [Compound 53],1 to 10
7,COc1ccc(C(C(=O)NC2CCCCC2)N(C(=O)Cc2cccs2)c2cccc(F)c2)cc1 (centres unmarked) [Compound 77],≥ 100
8,Cc1cccc(N(C(=O)Cc2cccs2)C(C(=O)NC2CCCCC2)c2ccccc2C)c1 (centres unmarked) [Compound 99],≤ 0.1
9,O=C(NC1CCCC1)C(c1ccccc1)N(C(=O)Cc1cccs1)c1ccccc1 (centres unmarked) [Compound 17],0.1 to 1
10,O=C(NC1CCCCC1)C(c1ccccc1[N+](=O)[O-])N(C(=O)Cc1cccs1)c1cccc(F)c1 (centres unmarked) [Compound 62],0.1 to 1
11,Cc1ccccc1C(C(=O)NC1CCCCC1)N(C(=O)Cc1cccs1)C(C)C (centres unmarked) [Compound 41],10 to 100
12,O=C(NC1CCCCC1)C(c1ccccc1F)N(C(=O)c1ccccn1)c1ccccc1F (centres unmarked) [Compound 60],0.1 to 1
13,Cc1ccc(N(C(=O)c2sc(C)nc2C)C(C(=O)NC2CCCC2)c2ccccc2)cc1 (centres unmarked) [Compound 9],1 to 10
14,Cc1ccccc1C(C(=O)NC1CCCCC1)N(C(=O)Cc1cccs1)c1cccc(F)c1 (centres unmarked) [Compound 15],≤ 0.1
15,Cc1ccc(C(C(=O)NC2CCCCC2)N(C(=O)Cc2cccs2)c2cccc(F)c2)cc1 (centres unmarked) [Compound 78],0.1 to 1
16,CC(C)Cc1ccc(C(C(=O)NC2CCCCC2)N(C(=O)Cc2cccs2)c2cccc(F)c2)cc1 (centres unmarked) [Compound 88],≥ 100
17,Cc1ccccc1C(C(=O)NC1CCCCC1)N(Cc1ccccc1)C(=O)Cc1cccs1 (centres unmarked) [Compound 71],1 to 10
18,COc1ccc(C(C(=O)NC2CCCC2)N(C(=O)Cc2cccs2)c2cccc(F)c2)cc1OC (centres unmarked) [Compound 19],≥ 100
19,O=C(NC1CCCC1)C(c1cccc([N+](=O)[O-])c1)N(C(=O)Cc1cccs1)c1cccc(F)c1 (centres unmarked) [Compound 20],≥ 100
20,Cc1ccccc1C(C(=O)NC1CCCCC1)N(C(=O)c1ccccn1)c1ccccc1F (centres unmarked) [Compound 59],1 to 10
21,Cc1ccccc1C(C(=O)NC1CCCCC1)N(C(=O)Cc1cccs1)c1ccc(Br)c(Cl)c1 (centres unmarked) [Compound 73],0.1 to 1

row,SMILES,IC50 [µM]
1,O=C(NC1CCCCC1)C(c1ccccc1O)N(C(=O)Cc1cccs1)c1cccc(F)c1 (centres unmarked) [Compound 67],0.1 to 1
2,O=C(NC1CCCCC1)C(c1ccccc1)N(C(=O)Cc1cccs1)c1ccccc1 (centres unmarked) [Compound 100],0.1 to 1
3,Cc1ccccc1C(C(=O)NC1CCCCC1)N(C(=O)Cc1cccs1)C1CCCC1 (centres unmarked) [Compound 70],1 to 10
4,O=C(NC1CCCCC1)C(c1ccccc1F)N(Cc1cccs1)C(=O)c1ccccn1 (centres unmarked) [Compound 37],10 to 100
5,COCOc1ccc(C(C(=O)NC2CCCCC2)N(C(=O)Cc2cccs2)c2cccc(F)c2)cc1 (centres unmarked) [Compound 85],1 to 10
6,Cc1ccccc1C(C(=O)NC1CCCCC1)N(C(=O)Cc1cccs1)c1ccc2c(c1)OCO2 (centres unmarked) [Compound 101],0.1 to 1
7,Cc1ccccc1C(C(=O)NC1CCCCC1)N(C(=O)Cc1cccs1)c1ccccc1 (centres unmarked) [Compound 42],0.1 to 1
8,Cc1ccccc1C(C(=O)NC1CCCC1)N(C(=O)Cn1nnc2ccccc21)c1ccccc1F (centres unmarked) [Compound 5],0.1 to 1
9,CC(C)C(C(=O)NC1CCCC1)N(C(=O)Cc1cccs1)c1cccc(F)c1 (centres unmarked) [Compound 16],≥ 100
10,O=C(NC1CCCCC1)C(c1ccc(Br)cc1)N(C(=O)Cc1cccs1)c1cccc(F)c1 (centres unmarked) [Compound 68],≥ 100
11,Cc1ccccc1C(C(=O)NC1CCCCC1)N(C)C(=O)Cc1cccs1 (centres unmarked) [Compound 40],≥ 100
12,O=C(NC1CCCCC1)C(c1cccc(C(F)(F)F)c1)N(C(=O)Cc1cccs1)c1cccc(F)c1 (centres unmarked) [Compound 96],1 to 10
13,O=C(NC1CCCC1)C(c1ccccc1F)N(C(=O)Cc1cccs1)c1cccc(F)c1 (centres unmarked) [Compound 43],0.1 to 1
14,CCCCCCCCOc1ccc(C(C(=O)NC2CCCCC2)N(C(=O)Cc2cccs2)c2cccc(F)c2)cc1 (centres unmarked) [Compound 93],0.1 to 1
15,O=C(NC1CCCCC1)C(c1ccc(-c2ccccc2)cc1)N(C(=O)Cc1cccs1)c1cccc(F)c1 (centres unmarked) [Compound 66],≥ 100
16,CCCCc1ccc(C(C(=O)NC2CCCCC2)N(C(=O)Cc2cccs2)c2cccc(F)c2)cc1 (centres unmarked) [Compound 86],≥ 100
17,CC(C)(C(=O)NC1CCCC1)N(C(=O)Cc1cccs1)c1cccc(F)c1 [Compound 21],≥ 100
18,CC(=O)c1cccc(C(C(=O)NC2CCCCC2)N(C(=O)Cc2cccs2)c2cccc(F)c2)c1 (centres unmarked) [Compound 95],≥ 100
19,O=C(NC1CCCCC1)C(c1ccccc1Cl)N(C(=O)Cc1cccs1)c1ccccc1F (centres unmarked) [Compound 35],0.1 to 1
20,CCOc1cc(C(C(=O)NC2CCCCC2)N(C(=O)Cc2cccs2)c2cccc(F)c2)ccc1OC (centres unmarked) [Compound 52],≥ 100

# Same assay, conditions: Table 4B; 0.2 μg/ml IDH1 R132H, 50 minutes at room temperature; read-out: IC50, IDH1 R132H Inhibition
row,SMILES,IC50 [µM]
1,Cc1ccccc1C(C(=O)NC1CCCCC1)N(C(=O)CCNC(=O)OC(C)(C)C)c1cccc(F)c1 (centres unmarked) [Compound 369],0.1 to 1
2,O=C(NC1CCCCC1)C(c1ccccc1Cl)N(C(=O)c1cc2ccccc2[nH]1)c1cccc(F)c1 (centres unmarked) [Compound 382],0.1 to 1
3,CC(=O)N1CCC[C@@H]1C(=O)N(c1cccc(F)c1)[C@H](C(=O)NC1CCCCC1)c1ccccc1C [Compound 371],0.1 to 1
4,Cc1ccccc1[C@@H](C(=O)NC1CCCCC1)N(C(=O)[C@@H]1CCCN1C(=O)OC(C)(C)C)c1cccc(F)c1 [Compound 343],0.1 to 1
5,Cc1ccccc1C(C(=O)NC1CCCCC1)N(C(=O)Cc1cccs1)c1cccnc1 (centres unmarked) [Compound 111],0.1 to 1
6,Cc1ccccc1[C@@H](C(=O)NC1CCCCC1)N(C(=O)[C@H]1CCCCN1)c1cccc(F)c1 [Compound 337],0.1 to 1
7,Cc1ccccc1C(C(=O)NC1CCCCC1)N(C(=O)Cc1cccs1)c1ccccc1Cl (centres unmarked) [Compound 147],0.1 to 1
8,CCOC(=O)N1CCC[C@@H]1C(=O)N(c1cccc(F)c1)[C@H](C(=O)NC1CCCCC1)c1ccccc1C [Compound 360],0.1 to 1
9,O=C(NC1CCCCC1)C(c1cc(F)cc(Cl)c1)N(C(=O)Cc1cccs1)c1cccc(F)c1 (centres unmarked) [Compound 102],0.1 to 1
10,C#CC(=O)N(c1cccc(F)c1)C(C(=O)NC1CCCCC1)c1ccccc1C (centres unmarked) [Compound 142],0.1 to 1
11,Cc1ccccc1C(C(=O)NC1CCCCC1)N(C(=O)CNC(=O)OC(C)(C)C)c1ccccc1F (centres unmarked) [Compound 352],0.1 to 1
12,Cc1ccccc1C(C(=O)NC1CCCCC1)N(C(=O)CNC1CCC1)c1cccc(F)c1 (centres unmarked) [Compound 120],0.1 to 1
13,Cc1ccccc1C(C(=O)NC1CCCCC1)N(C(=O)CN1CCc2ccccc21)c1cccc(F)c1 (centres unmarked) [Compound 153],0.1 to 1
14,Cc1ccccc1C(C(=O)NC1CCCCC1)N(C(=O)Cn1nnc2ccccc21)c1cccc(F)c1 (centres unmarked) [Compound 151],0.1 to 1
15,Cc1ccccc1C(C(=O)Nc1ccccc1Br)N(C(=O)Cc1cccs1)c1cccc(F)c1 (centres unmarked) [Compound 164],0.1 to 1
16,COc1ccccc1C(C(=O)NC1CCCCC1)N(C(=O)Cc1cccs1)c1cccc(F)c1 (centres unmarked) [Compound 116],0.1 to 1
17,Cc1ccccc1C(C(=O)NC1CCOCC1)N(C(=O)Cc1cccs1)c1cccc(F)c1 (centres unmarked) [Compound 159],0.1 to 1
18,Cc1ccccc1C(C(=O)NC1CCCCC1)N(Cc1cccs1)C(=O)CN1CCCc2ccccc21 (centres unmarked) [Compound 168],1 to 10
19,CCOC(=O)N1CCCC[C@H]1C(=O)N(c1cccc(F)c1)[C@H](C(=O)NC1CCCCC1)c1ccccc1C [Compound 348],≤ 0.1
20,Cc1ccccc1C(C(=O)NC1CCCCC1)N(C(=O)C1COc2ccccc2O1)c1cccc(F)c1 (centres unmarked) [Compound 125],0.1 to 1
21,Cc1ccccc1C(C(=O)NC1CCCCC1)N(C(=O)Cn1ccnn1)c1cccc(F)c1 (centres unmarked) [Compound 329],0.1 to 1
22,O=C(NC1CCCCC1)C(c1ccccc1Cl)N(C(=O)Cn1cnc(Cl)c1Cl)c1cccc(F)c1 (centres unmarked) [Compound 383],≤ 0.1
23,COC(=O)NCC(=O)N(c1ccc(F)cc1)C(C(=O)NC1CCCCC1)c1ccccc1C (centres unmarked) [Compound 353],0.1 to 1
24,O=C(NC1CCCCC1)C(c1cccc(F)c1)N(C(=O)Cc1cccs1)c1cccc(F)c1 (centres unmarked) [Compound 137],0.1 to 1
25,Cc1ccccc1C(C(=O)NC1CCCCC1)N(C(=O)Cc1cccs1)c1cccc(Cl)c1 (centres unmarked) [Compound 140],≤ 0.1
26,O=C(NC1CCCCC1)C(c1c(Br)ccc(Br)c1F)N(C(=O)Cc1cccs1)c1cccc(F)c1 (centres unmarked) [Compound 114],0.1 to 1
27,Cc1ccccc1[C@@H](C(=O)NC1CCCCC1)N(C(=O)[C@@H]1CCCN1S(C)(=O)=O)c1cccc(F)c1 [Compound 362],0.1 to 1
28,Cc1ccccc1C(C(=O)NC1CCCCC1)N(C(=O)Cc1cccs1)c1cccc(C(F)(F)F)c1 (centres unmarked) [Compound 122],0.1 to 1
29,O=C(NC1CCCCC1)C(c1ccccc1C(F)(F)F)N(C(=O)Cc1cccs1)c1cccc(F)c1 (centres unmarked) [Compound 108],0.1 to 1
30,CNC(=O)N1CCCC[C@@H]1C(=O)N(c1cccc(F)c1)[C@H](C(=O)NC1CCCCC1)c1ccccc1C [Compound 364],0.1 to 1
